Measured values reported in PubChem BioAssay (NCI).
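The concentration for 50% growth inhibition is given as GI50. TGI is the concentration that stops growth completely.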

How the values were obtained:
Test in all cases: NCI anticancer screen, dose series, 384-well format
[1] = system: 786-0 renal
[2] = system: A498 renal
[3] = system: A549 NSCLC
[4] = system: ACHN renal
[5] = system: BT-549 breast
[6] = system: CAKI-1 renal
[7] = system: CCRF-CEM leukemia
[8] = system: COLO 205 colon
[9] = system: DU-145 prostate
[10] = system: EKVX NSCLC
[11] = system: HCC-2998 colon
[12] = system: HCT-116 colon
[13] = system: HCT-15 colon
[14] = system: HL-60(TB) leukemia
[15] = system: HOP-62 NSCLC
[16] = system: HOP-92 NSCLC
[17] = system: HS 578T breast
[18] = system: HT29 colon
[19] = system: IGROV1 ovarian
[20] = system: K-562 leukemia
[21] = system: KM12 colon
[22] = system: LOX IMVI melanoma
[23] = system: M14 melanoma
[24] = system: MALME-3M melanoma
[25] = system: MCF7 breast
[26] = system: MDA-MB-231 breast
[27] = system: MDA-MB-435 melanoma
[28] = system: MDA-MB-468 breast
[29] = system: MOLT-4 leukemia
[30] = system: NCI-H226 lung
[31] = system: NCI-H23 lung
[32] = system: NCI-H322M lung
[33] = system: NCI-H460 NSCLC
[34] = system: NCI-H522 lung
[35] = system: NCI/ADR-RES ovarian
[36] = system: OVCAR-3 ovarian
[37] = system: OVCAR-4 ovarian
[38] = system: OVCAR-8 ovarian
[39] = system: PC-3 prostate
[40] = system: RPMI-8226 leukemia
[41] = system: RXF 393 renal
[42] = system: SF-268 CNS
[43] = system: SF-295 CNS
[44] = system: SF-539 CNS
[45] = system: SK-MEL-28 melanoma
[46] = system: SK-MEL-5 melanoma
[47] = system: SK-OV-3 ovarian
[48] = system: SN12C renal
[49] = system: SNB-19 CNS
[50] = system: SNB-75 CNS
[51] = system: SR leukemia
[52] = system: SW-620 colon
[53] = system: T-47D breast
[54] = system: TK-10 renal
[55] = system: U251 glioblastoma
[56] = system: UACC-257 melanoma
[57] = system: UACC-62 melanoma
[58] = system: UO-31 renal

Q: For `COc1cc2ncnc(Nc3cccc(Cl)c3F)c2cc1OC(=O)N1CCN(C)C[C@H]1C`, which GI50 [1] is on record?
A: 14.4 µM

Q: What about the TGI [1] of the same compound?
A: 29 µM

Q: What about the GI50 [2] of the same compound?
A: 17 µM

Q: What about the TGI [2] of the same compound?
A: 42.5 µM

Q: And the GI50 [3]?
A: 12.3 µM

Q: And the TGI [3]?
A: 43.1 µM

Q: What about the GI50 [4] of the same compound?
A: 0.427 µM

Q: And the TGI [4]?
A: 20.7 µM

Q: And the GI50 [5]?
A: 20.3 µM

Q: And the TGI [5]?
A: 46.5 µM

Q: And the GI50 [6]?
A: 2.3 µM

Q: What about the TGI [6] of the same compound?
A: 20.4 µM

Q: And the GI50 [7]?
A: 20.1 µM

Q: And the TGI [7]?
A: 49.2 µM

Q: And the GI50 [8]?
A: 22.4 µM

Q: What about the TGI [8] of the same compound?
A: 54 µM

Q: What about the GI50 [9] of the same compound?
A: 13.5 µM

Q: What about the TGI [9] of the same compound?
A: 58.2 µM

Q: And the GI50 [10]?
A: 0.304 µM

Q: And the TGI [10]?
A: 16.7 µM

Q: And the GI50 [11]?
A: 17.3 µM

Q: What about the TGI [11] of the same compound?
A: 32.4 µM

Q: And the GI50 [12]?
A: 16.9 µM

Q: What about the TGI [12] of the same compound?
A: 32.8 µM

Q: What about the GI50 [13] of the same compound?
A: 13.9 µM

Q: And the TGI [13]?
A: 29.2 µM

Q: What about the GI50 [14] of the same compound?
A: 16.5 µM

Q: And the TGI [14]?
A: 30.2 µM

Q: What about the GI50 [15] of the same compound?
A: 17.6 µM

Q: What about the TGI [15] of the same compound?
A: 42 µM

Q: What about the GI50 [16] of the same compound?
A: 13.4 µM

Q: What about the TGI [16] of the same compound?
A: 28.5 µM

Q: And the GI50 [17]?
A: 15.2 µM

Q: What about the TGI [17] of the same compound?
A: 29.6 µM

Q: What about the GI50 [18] of the same compound?
A: 14.4 µM

Q: And the TGI [18]?
A: 31.2 µM

Q: And the GI50 [19]?
A: 0.241 µM

Q: What about the TGI [19] of the same compound?
A: 11.9 µM

Q: What about the GI50 [20] of the same compound?
A: 5.49 µM

Q: What about the TGI [20] of the same compound?
A: 17.8 µM

Q: What about the GI50 [21] of the same compound?
A: 20.1 µM

Q: And the TGI [21]?
A: 41.4 µM

Q: And the GI50 [22]?
A: 16.3 µM

Q: What about the TGI [22] of the same compound?
A: 30.5 µM

Q: What about the GI50 [23] of the same compound?
A: 16.4 µM

Q: And the TGI [23]?
A: 30.7 µM

Q: What about the GI50 [24] of the same compound?
A: 15.1 µM

Q: What about the TGI [24] of the same compound?
A: 28.8 µM

Q: What about the GI50 [25] of the same compound?
A: 19.8 µM

Q: And the TGI [25]?
A: 87.4 µM

Q: What about the GI50 [26] of the same compound?
A: 14.7 µM

Q: What about the TGI [26] of the same compound?
A: 38.4 µM

Q: What about the GI50 [27] of the same compound?
A: 22.6 µM

Q: What about the TGI [27] of the same compound?
A: 55.8 µM

Q: What about the GI50 [28] of the same compound?
A: 0.128 µM

Q: And the TGI [28]?
A: 0.446 µM

Q: And the GI50 [29]?
A: 14.2 µM

Q: What about the TGI [29] of the same compound?
A: 28.1 µM

Q: What about the GI50 [30] of the same compound?
A: 11.7 µM

Q: And the TGI [30]?
A: 33.8 µM

Q: What about the GI50 [31] of the same compound?
A: 16.4 µM

Q: And the TGI [31]?
A: 41.7 µM

Q: And the GI50 [32]?
A: 0.144 µM

Q: And the TGI [32]?
A: 10.8 µM

Q: What about the GI50 [33] of the same compound?
A: 19.9 µM

Q: And the TGI [33]?
A: 44.2 µM

Q: And the GI50 [34]?
A: 0.851 µM

Q: And the TGI [34]?
A: 17.5 µM

Q: And the GI50 [35]?
A: 18 µM

Q: What about the TGI [35] of the same compound?
A: 64.2 µM

Q: And the GI50 [36]?
A: 4.35 µM

Q: What about the TGI [36] of the same compound?
A: 24.3 µM

Q: And the GI50 [37]?
A: 18.5 µM

Q: And the TGI [37]?
A: 51.5 µM

Q: And the GI50 [38]?
A: 15.3 µM

Q: And the TGI [38]?
A: 49.2 µM

Q: What about the GI50 [39] of the same compound?
A: 15.6 µM

Q: What about the TGI [39] of the same compound?
A: 49.8 µM

Q: And the GI50 [40]?
A: 14.6 µM

Q: What about the TGI [40] of the same compound?
A: 30.9 µM

Q: What about the GI50 [41] of the same compound?
A: 14.1 µM

Q: And the TGI [41]?
A: 29.2 µM

Q: What about the GI50 [42] of the same compound?
A: 18.8 µM

Q: What about the TGI [42] of the same compound?
A: 54 µM

Q: And the GI50 [43]?
A: 16.3 µM

Q: What about the TGI [43] of the same compound?
A: 31.4 µM

Q: And the GI50 [44]?
A: 16.7 µM

Q: What about the TGI [44] of the same compound?
A: 32.5 µM

Q: What about the GI50 [45] of the same compound?
A: 14.6 µM

Q: And the TGI [45]?
A: 28 µM

Q: And the GI50 [46]?
A: 11.5 µM

Q: And the TGI [46]?
A: 24.9 µM

Q: And the GI50 [47]?
A: 3.46 µM

Q: What about the TGI [47] of the same compound?
A: 22.7 µM

Q: And the GI50 [48]?
A: 2.69 µM

Q: What about the TGI [48] of the same compound?
A: 27.6 µM

Q: What about the GI50 [49] of the same compound?
A: 27.7 µM

Q: What about the TGI [49] of the same compound?
A: > 100 µM

Q: And the GI50 [50]?
A: 17.6 µM

Q: And the TGI [50]?
A: 47.1 µM

Q: What about the GI50 [51] of the same compound?
A: 10.8 µM

Q: And the TGI [51]?
A: 23.6 µM

Q: And the GI50 [52]?
A: 20.3 µM

Q: And the TGI [52]?
A: 38.2 µM

Q: What about the GI50 [53] of the same compound?
A: 9.89 µM

Q: What about the TGI [53] of the same compound?
A: 40.9 µM

Q: And the GI50 [54]?
A: 0.573 µM

Q: What about the TGI [54] of the same compound?
A: 21.3 µM

Q: What about the GI50 [55] of the same compound?
A: 20.2 µM

Q: And the TGI [55]?
A: 48 µM

Q: And the GI50 [56]?
A: 17.5 µM

Q: And the TGI [56]?
A: 31.5 µM

Q: What about the GI50 [57] of the same compound?
A: 14.2 µM

Q: And the TGI [57]?
A: 28.1 µM

Q: And the GI50 [58]?
A: 6.94 µM

Q: What about the TGI [58] of the same compound?
A: 27.9 µM
